Source: patent US20150313209A1, “SOLUTION FOR PRESERVING VASCULAR CONDUITS” (SOMAHLUTION, LLC, priority 2012, published 2015)

Experiment: Stability of ascorbic acid and reduced glutathione in solution over time (chromatography with electrospray MS / photo diode array detection)
Assay type: physicochemical
Details: stored at room temperature
Protocol: A second solution and the final formulation from Example 1 were analyzed to evaluate the stability of ascorbic acid and reduced glutathione over a period of time at room temperature. The final formulation was formed by mixing together the first and second solutions and its pH was adjusted to about 7.4. […] The stability of ascorbic acid and the stability of reduced glutathione were determined over a period of time in both solutions. Both the final formulation and the second solution were stored at room temperature. The chromatography method developed and employed for this study separated the ascorbic acid and glutathione reproducibly and without any mutual interference between the components or their decomposition products. Two components were detected using electrospray spectrometry in +ve selected ion monitoring mode. In addition L-Ascorbic acid, and L-glutathione were also detected by photo diode array absorbing in the 190-400 nm range. The integrated chromatographic intensities of each of the component peaks was a measure of its molar quantity in solution analyzed. The pH, conductivity, and osmolalities were also measured for each sample. The stability indicating properties of GALA were evaluated at: 40° C.±2° C./75% RH±5% Relative Humidity (RH). A qualified stability chamber with uniform and constant temperature and relative humidity was used for storing the product containers. The chamber's thermometer and digital readout were recorded daily. Samples received for the proposed stability study were logged and tracked in a Sample Receipt and Storage Log and maintained at 2-8° C. until the commencement of the study. A minimum of twenty one containers of the device from each representative batch of the first and second solutions were placed in the stability chamber maintained at 40° C.±2° C./75% RH±5% RH. This date was recorded as the zero time point. Three containers of each of the first and second solutions were pulled at 0, 5, 9, 15, 30, 50, and 80-day intervals from the stability chamber for testing.

[1] = in the final formulation (first and second solutions mixed) having a pH of about 7.4
[2] = in the second solution having a pH of about 3.0

rate of decay [1] | rate of decay [2] | Compound
about 6 mg per day | about 3 mg per day | N[C@@H](CCC(=O)N[C@@H](CS)C(=O)NCC(=O)O)C(=O)O [reduced glutathione, L-glutathione (reduced)]
about 15 mg per day | about 3 mg per day | O=C1O[C@H]([C@@H](O)CO)C(O)=C1O [ascorbic acid, L-ascorbic acid]
